2 molecules from patent EP4001271A1, “CRYSTALLINE FORM OF 2-CHLORO-N-CYCLOPROPYL-5-[1-[2,6-DICHLORO-4-[1,2,2,2-TETRAFLUORO-1- (TRIFLUOROMETHYL)ETHYL]PHENYL]PYRAZOL-4-YL]-N-METHYL-PYRIDINE-3-CARBOXAMIDE” (Bayer Aktiengesellschaft, priority 2020, dated 2022) can be followed below.

A word on the fraction remaining: it is the share of the starting amount still present when the sample was taken. High values mean greater stability, low ones a greater loss.

Like-named read-outs stand apart in the source and are kept apart here.

What all share (type): physicochemical
Series [1] in a line: Quantitative solubility in solvents, stepwise solvent addition with visual check. Conditions: read-out: solubility (concentration in solvent). As to the method: The solubility of the active provided in Example 1 was further investigated in various solvents (entry 1 to 14 of Table 6). For the determination of the quantitative solubility, the respective solvent(-mixture) was added to approx. 40 mg of the solid, up to a maximum solvent addition of 2 mL in 50 - 200 µL steps. The vials were sealed between each addition of the solvent and the solubility was checked visually. […] Optically clear solutions were filtered via a so-called syringe prefilter and evaporated to dryness at different temperatures. Furthermore, cooling crystallizations were carried out. Undissolved substances were stirred for one week at room temperature in the respective anti-solvent. Table 5. Selection of solvents and anti-solvents
Based on the solvents and anti-solvents from Table 5, crystallization experiments, listed in Table 6, were carried out to obtain new solid forms of the active provided in Example 1. X-ray powder diffraction was used to assess whether a new phase has been formed.

Series [2] is described as follows: DVS water sorption study (hydrate formation). The settings on record: 0 to 90% RH and back in 10% increments. The procedure:
The water sorption was determined using a DVS Resolution (London, UK) gravimetric sorption analyzer. The sample was dried at 0% relative humidity for 1000 minutes, after which the dry mass was recorded. Humidity was ramped in 10% increments to 90% RH and then back to 0% RH. The equilibrium criterion was set to a relative mass change of dm/dt=0.002%/minute.

Series [3] in a line: Storage experiment, influence of temperature on stability of crystalline form A (HPLC purity, XRD form). Conditions: for Purity / remaining at 672 h / remaining at 2016 h / remaining at 4032 h: HPLC, 1 mg/2mL ACN; for remaining at 672 h / remaining at 2016 h / remaining at 4032 h: solid storage. As to the method: (§1) For Powder X-Ray Diffraction (XRD) the samples were placed into standard glass capillaries (∅ = 0.7 mm). The measurements were performed at room temperature with a D8 Bruker Advance Diffractometer (Cu-Kα1 = 1.5406 Å, Johansson primary beam monochromator, position sensitive detector) in transmission mode with rotation of the sample. Data were collected in a two-theta range of 2 - 38°. The tube voltage and current were 40 kV and 40 mA, respectively. [table] [table] Storage experiments in different environments (25°C, 50°C, 25°C/85 % RH) were performed to investigate the influence of temperature and moisture on the stability of crystalline form A of the compound of formula (I). […] Two samples of crystalline form A were stored at 25°C and 50°C, respectively (see Table 7). The samples were analyzed after 0, 1, 3, and 6 months by DSC, TGA, spectroscopy, X-ray powder diffraction, and HPLC (measurements for chemical stability). […] Exemplarily, the HPLC results are disclosed in Table 7. Table 7. Influence of temperature after four, 12, and 24 weeks. Purity determined by HPLC. ACN denotes acetonitrile. *entry 16 of Table 6

Series [4] can be described thus: Storage experiment, influence of humidity on stability of crystalline form A (HPLC purity, XRD form). The procedure: as §1, with “25°C/approx. 85 % rel. humidity” for “25°C and 50°C, respectively”, “8).” for “7).”, “8.” for “7.”, “humidity 0, 1, 3” for “temperature after four, 12,”, “6 months.” for “24 weeks.”

On to `CN(C(=O)c1cc(-c2cnn(-c3c(Cl)cc(C(F)(C(F)(F)F)C(F)(F)F)cc3Cl)c2)cnc1Cl)C1CC1` [compound of formula (I), 2-Chloro-N-cyclopropyl-5-[1-[2,6-dichloro-4-[1,2,2,2-tetrafluoro-1-(trifluoromethyl)ethyl]phenyl]pyrazol-4-yl]-N-methyl-pyridine-3-carboxamide], for which the solubility in series [1] (3-methyl-1-butanol, organic solvent or mixture, 3-methyl-1-butanol, entry 9, evaporation 50°C) worked out at 21 mg/mL; in series [1] (acetonitrile, organic solvent or mixture, acetonitrile, entry 14, evaporation at ambient conditions), 30 mg/mL; in series [1] (cyclohexane, organic solvent or mixture, cyclohexane (anti-solvent, not completely dissolved), entry 8, slurry 1 week), 19 mg/mL; in series [1] (ethanol, organic solvent or mixture, EtOH, entry 5, evaporation at ambient conditions), 25 mg/mL; in series [1] (heptane, organic solvent or mixture, heptane (anti-solvent, not completely dissolved), entry 7, slurry 1 week) it was 19 mg/mL; in series [1] (isopropyl alcohol, organic solvent or mixture, isopropyl alcohol, entry 1, clear solution, evaporation at ambient conditions), 17 mg/mL. In addition, the solubility in series [1] (isopropyl alcohol/propylene carbonate 65:35, organic solvent or mixture, isopropyl alcohol/propylene carbonate 65:35 %w/w, entry 3, slurry 1 week) amounted to 268 mg/mL; in series [1] (isopropyl alcohol/propylene carbonate 65:35, organic solvent or mixture, isopropyl alcohol/propylene carbonate 65:35 %w/w, entry 4, evaporation 50°C), 93 mg/mL; in series [1] (propylene carbonate, organic solvent or mixture, propylene carbonate, entry 2, slurry 1 week) it was 276 mg/mL; in series [1] (water, H2O (anti-solvent, not completely dissolved), entry 6, slurry 1 week) it was 19 mg/mL.

In the case of `CN(C(=O)c1cc(-c2cnn(-c3c(Cl)cc(C(F)(C(F)(F)F)C(F)(F)F)cc3Cl)c2)cnc1Cl)C1CC1` [crystalline form A, 2-chloro-N-cyclopropyl-5-[1-[2,6-dichloro-4-[1,2,2,2-tetrafluoro-1-(trifluoromethyl)ethyl]phenyl]pyrazol-4-yl]-N-methyl-pyridine-3-carboxamide], in series [2], the hydrate formation entry is “does not form hydrates”. Besides, in series [2], the hygroscopicity entry is recorded as “not hygroscopic”. In addition, the “mass increase over the entire area” value in series [2] is “negligibly small”. In addition, the “phase transition on storage” value in series [3] (25°C and 50°C, after twelve weeks) was “no phase transition”; in series [4] (25°C/85 % RH, after twelve weeks), “no phase transition”. The “change in DSC, TGA, spectroscopy, X-ray powder diffraction and HPLC measurements on storage” value in series [3] (25°C and 50°C, after 0, 1, 3 and 6 months) is on record as “did not result in a significant change”; in series [4] (25°C/approx. 85 % rel. humidity, after 0, 1, 3 and 6 months), “did not result in a significant change”. For the same molecule, the Purity in series [3] (25 °C, 4 weeks, 40320 min, listed as 16*) turned out to be 99.09%; in series [3] (25 °C, 12 weeks, 120960 min, listed as 16*), 99.23%; in series [3] (50 °C, 12 weeks, 120960 min, listed as 16*), 99.25%; in series [3] (50 °C, 24 weeks, 241920 min, listed as 16*), 99.34%; in series [3] (no storage (initial value)), 99.54%; in series [4] (25 °C, 85% RH, 4 weeks, HPLC, 1 mg/2mL ACN, 40320 min, listed as 16*), 99.10%. The Purity in series [4] (25 °C, 85% RH, 12 weeks, HPLC, 1 mg/2mL ACN, 120960 min, listed as 16*) stood at 99.25%; in series [4] (25 °C, 85% RH, 24 weeks, HPLC, 1 mg/2mL ACN, 241920 min, listed as 16*), 99.75%; in series [4] (no storage (initial value), HPLC, 1 mg/2mL ACN), 99.54%. For the same molecule, the amount remaining at 672 h came out at 98.3% in series [3] (25 °C, 4 weeks); 99.1% in series [3] (50 °C, 4 weeks); 99% in series [4] (solid storage, 85% rh, 25 °C, 4 weeks, HPLC, 1 mg/2mL ACN). In addition, the fraction remaining at 2016 h in series [3] (25 °C, 12 weeks) worked out at 99.3%; in series [3] (50 °C, 12 weeks), 99.5%; in series [4] (solid storage, 85% rh, 25 °C, 12 weeks, HPLC, 1 mg/2mL ACN) it was 99.3%. Besides, the fraction remaining at 4032 h in series [3] (25 °C, 24 weeks) was determined as 99.4%; in series [3] (50 °C, 24 weeks) it was 99.4%; in series [4] (solid storage, 85% rh, 25 °C, 24 weeks, HPLC, 1 mg/2mL ACN), 99.4%.
